From patent publication US20230158151A1 (NURIX THERAPEUTICS, INC., priority 2021, published 2023)
Where two headings read alike, the source gives them in different places.

Target: T1, ITK (Homo sapiens, UniProt Q08881)
T1 construct: Compounds provided herein were assayed in vitro with ITK HiBit cell lines; endogenous in cells; host or cells: Molt4 (ATCC CRL-1552 [sic]), monoclonal clone 1C10
T1 sequence (Q08881 1-620): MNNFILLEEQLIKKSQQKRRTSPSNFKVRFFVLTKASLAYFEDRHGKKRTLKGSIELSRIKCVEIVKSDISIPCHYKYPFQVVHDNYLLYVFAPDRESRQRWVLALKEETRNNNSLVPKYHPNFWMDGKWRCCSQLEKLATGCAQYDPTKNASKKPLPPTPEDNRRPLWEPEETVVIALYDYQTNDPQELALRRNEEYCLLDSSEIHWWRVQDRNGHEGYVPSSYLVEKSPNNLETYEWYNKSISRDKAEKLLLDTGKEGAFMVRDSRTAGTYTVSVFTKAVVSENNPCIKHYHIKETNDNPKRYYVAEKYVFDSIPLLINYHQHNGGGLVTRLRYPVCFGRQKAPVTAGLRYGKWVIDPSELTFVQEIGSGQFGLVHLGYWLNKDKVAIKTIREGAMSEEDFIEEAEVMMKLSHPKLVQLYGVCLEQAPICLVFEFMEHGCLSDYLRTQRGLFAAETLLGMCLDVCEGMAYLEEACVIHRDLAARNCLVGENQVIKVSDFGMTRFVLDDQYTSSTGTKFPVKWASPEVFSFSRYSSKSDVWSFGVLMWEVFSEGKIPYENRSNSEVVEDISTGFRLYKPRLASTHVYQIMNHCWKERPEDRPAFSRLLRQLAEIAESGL
Experiment: ITK Degradation HiBiT Assay
Assay type: cell-based
Experimental: Compounds provided herein were assayed in vitro with ITK HiBit cell lines. Compound dilution series (11-point, 5 fold dilutions in DMSO, columns 2-12 with replicate in rows A/B, C/D, E/F, G, H at 2000× the final required concentrations were prepared in 96 well plate (Falcon, cat. no. 353077). Column 1, rows A-H were control DMSO. The 2000× solutions ranged from 2 mM to 1.024 nM (final assay concentration range 1 μM to […]). The 2000× solutions were added to cells in […], for a final DMSO concentration of 0.5% and final assay compound concentration of 1×. For the cells, C-terminal HiBiT-tagged Molt4 cells (ATCC CRL-1552, monoclonal cell line clone 1C10) were plated at 1×10^6 cells/mL, 100 μL/well ([…]) in complete RPMI (10% FBS, 1% L-glutamine). The cells were incubated with compound 32 and compound 30 for 4 hrs at 32° C./6% CO2.
Following incubation, 100 μL of complete Nano-Glo HiBiT Lytic Detection Reagent (Nano-Glo HiBiT Lytic Buffer with 1:50 Nano-Glo HiBiT Lytic Substrate and 1:100 LgBiT Protein; Promega cat. no. N3O40) was added. Cells were further incubated for 10 min at room temperature (RT). Luminescence units (LU) were read on an EnVision plate reader (Perkin Elmer, 0.1 sec per well). Percent ITK remaining per sample was calculated as follows: […]
Using Graphpad Prism, % ITK remaining values were plotted as a function of compound concentration. To determine DC50 and Dmax values, resulting curves were fit to the Prism curve-fitting equation “log(inhibitor) vs response−Variable slope (four parameters)” (reported best fit value IC50 used as DC50). ITK was measured with antibody-based MSD (Meso-Scale Discovery) assays shown below.

[1] = MOLT-4, C-terminal HiBiT-tagged Molt4 cells, 4 hrs incubation, read-out: HiBiT DMax (%)
[2] = C-terminal HiBiT-tagged Molt4 cells, 4 hrs incubation

Row | Compound | Dmax [1] [%] | Dmax (ITK degradation in HiBiT cell line, FIG. 1, read-out: Dmax values (FIG. 1)) [%] | DC50 [2] [nM]
1 | C[C@@H](C(=O)N(C)c1ccc2cc(-c3n[nH]c4c3C[C@@H]3C(F)(F)[C@]3(C)C4)[nH]c2c1)N1CCN(CC2CCN(c3ccc(N4CCC(=O)NC4=O)cn3)CC2)CC1 [Compound 29, (S)—N-(2-((4aS,5aR)-5,5-difluoro-5a-methyl-1,4,4a,5,5a,6-hexahydrocyclopropa[f]indazol-3-yl)-1H-indol-6-yl)-2-(4-((1-(5-(2,4-dioxotetrahydropyrimidin-1(2H)-yl)pyridin-2-yl)piperidin-4-yl)methyl)piperazin-1-yl)-N-methylpropanamide] | 76 |  | 
2 | C[C@@H](C(=O)N(C)c1ccc2cc(-c3n[nH]c4c3CCC(C)(C)C4)[nH]c2c1)N1CCN(CC2CCN(c3ccc(C4CCC(=O)NC4=O)cn3)CC2)CC1 (stereo partly drawn) [Compound 32, (2S)—N-(2-(6,6-dimethyl-4,5,6,7-tetrahydro-1H-indazol-3-yl)-1H-indol-6-yl)-2-(4-((1-(5-(2,6-dioxopiperidin-3-yl)pyridin-2-yl)piperidin-4-yl)methyl)piperazin-1-yl)-N-methylpropanamide] | 89 | 90 to 100 | 
3 | CC1(C)CCc2c(-c3cc4ccc(C(=O)N5CCN(CC6CCN(c7ccc(C8CCC(=O)NC8=O)cc7)CC6)CC5)cc4[nH]3)n[nH]c2C1 (centres unmarked) [Compound 38, 3-(4-(4-((4-(2-(6,6-dimethyl-4,5,6,7-tetrahydro-1H-indazol-3-yl)-1H-indole-6-carbonyl)piperazin-1-yl)methyl)piperidin-1-yl)phenyl)piperidine-2,6-dione] | 74 |  | 1.5
4 | CN(C(=O)CC1CCN(CC2CCN(c3ccc(C4CCC(=O)NC4=O)cn3)CC2)CC1)c1ccc2cc(-c3n[nH]c4c3C[C@@H]3C(F)(F)[C@]3(C)C4)[nH]c2c1 (stereo partly drawn) [Compound 6, N-(2-((4aS,5aR)-5,5-difluoro-5a-methyl-1,4,4a,5,5a,6-hexahydrocyclopropa[f]indazol-3-yl)-1H-indol-6-yl)-2-(1-((1-(5-(2,6-dioxopiperidin-3-yl)pyridin-2-yl)piperidin-4-yl)methyl)piperidin-4-yl)-N-methylacetamide] | 85 |  | 
5 | CC1(C)CCc2c(-c3cc4ccc(C(=O)N5CCC(CN6CCN(c7ccc(C8CCC(=O)NC8=O)nc7)CC6)CC5)cc4[nH]3)n[nH]c2C1 (centres unmarked) [Compound 35, 3-(5-(4-((1-(2-(6,6-dimethyl-4,5,6,7-tetrahydro-1H-indazol-3-yl)-1H-indole-6-carbonyl)piperidin-4-yl)methyl)piperazin-1-yl)pyridin-2-yl)piperidine-2,6-dione] | 86 |  | < 0.01
6 | CN(C(=O)CCC1CCN(c2ccc(C3CCC(=O)NC3=O)cn2)CC1)c1ccc2cc(-c3n[nH]c4c3C[C@@H]3C(F)(F)[C@]3(C)C4)[nH]c2c1 (stereo partly drawn) [Compound 4, N-(2-((4aS,5aR)-5,5-difluoro-5a-methyl-1,4,4a,5,5a,6-hexahydrocyclopropa[f]indazol-3-yl)-1H-indol-6-yl)-3-(1-(5-(2,6-dioxopiperidin-3-yl)pyridin-2-yl)piperidin-4-yl)-N-methylpropanamide] | 82 |  | 
7 | CC1(C)CCc2c(-c3cc4ccc(N5CCC6(CCN(CC7CCN(c8ccc(C9CCC(=O)NC9=O)cn8)CC7)CC6)C5=O)cc4[nH]3)n[nH]c2C1 (centres unmarked) [Compound 24, 3-(6-(4-((2-(2-(6,6-dimethyl-4,5,6,7-tetrahydro-1H-indazol-3-yl)-1H-indol-6-yl)-1-oxo-2,8-diazaspiro[4.5]decan-8-yl)methyl)piperidin-1-yl)pyridin-3-yl)piperidine-2,6-dione] | 92 |  | 0.6
8 | CC1(C)CCc2c(-c3cc4ccc(C(=O)N5CCC(CN6CCC(c7ccc(C8CCC(=O)NC8=O)cc7)CC6)CC5)cc4[nH]3)n[nH]c2C1 (centres unmarked) [Compound 39, 3-(4-(1-((1-(2-(6,6-dimethyl-4,5,6,7-tetrahydro-1H-indazol-3-yl)-1H-indole-6-carbonyl)piperidin-4-yl)methyl)piperidin-4-yl)phenyl)piperidine-2,6-dione] | 82 |  | 0.09
9 | C[C@@]12Cc3[nH]nc(-c4cc5ccc(N6CCC7(CCN(CC8CCN(c9ccc(C%10CCC(=O)NC%10=O)cn9)CC8)CC7)C6=O)cc5[nH]4)c3C[C@@H]1C2(F)F (stereo partly drawn) [Compound 28, 3-(6-(4-((2-(2-((4aS,5aR)-5,5-difluoro-5a-methyl-1,4,4a,5,5a,6-hexahydrocyclopropa[f]indazol-3-yl)-1H-indol-6-yl)-1-oxo-2,8-diazaspiro[4.5]decan-8-yl)methyl)piperidin-1-yl)pyridin-3-yl)piperidine-2,6-dione] | 91 |  | 
10 | CC1(C)CCc2c(-c3cc4ccc(C(=O)N5CCN(CC6CCN(c7ccc(C8CCC(=O)NC8=O)cn7)CC6)CC5)cc4[nH]3)n[nH]c2C1 (centres unmarked) [Compound 26, 3-(6-(4-((4-(2-(6,6-dimethyl-4,5,6,7-tetrahydro-1H-indazol-3-yl)-1H-indole-6-carbonyl)piperazin-1-yl)methyl)piperidin-1-yl)pyridin-3-yl)piperidine-2,6-dione] | 87 |  | 
11 | C[C@@H](C(=O)N(C)c1ccc2cc(-c3n[nH]c4c3CCC(C)(C)C4)[nH]c2c1)N1CCN(CC2CCN(c3ccc(N4CCC(=O)NC4=O)cn3)CC2)CC1 [Compound 31, (S)—N-(2-(6,6-dimethyl-4,5,6,7-tetrahydro-1H-indazol-3-yl)-1H-indol-6-yl)-2-(4-((1-(5-(2,4-dioxotetrahydropyrimidin-1(2H)-yl)pyridin-2-yl)piperidin-4-yl)methyl)piperazin-1-yl)-N-methylpropanamide] | 84 |  | 
12 | CC1(C)CCc2c(-c3cc4ccc(C(=O)N5CCC(CN6CCN(c7ccc(C8CCC(=O)NC8=O)cc7)CC6)CC5)cc4[nH]3)n[nH]c2C1 (centres unmarked) [Compound 37, 3-(4-(4-((1-(2-(6,6-dimethyl-4,5,6,7-tetrahydro-1H-indazol-3-yl)-1H-indole-6-carbonyl)piperidin-4-yl)methyl)piperazin-1-yl)phenyl)piperidine-2,6-dione] | 79 |  | 2.6
13 | C[C@@]12Cc3[nH]nc(C(=O)Nc4cnn(CC5CN(C(=O)C6CCN(c7ccc(C8CCC(=O)NC8=O)cn7)CC6)C5)c4)c3C[C@@H]1C2(F)F (stereo partly drawn) [Compound 22, (4aS,5aR)—N-(1-((1-(1-(5-(2,6-dioxopiperidin-3-yl)pyridin-2-yl)piperidine-4-carbonyl)azetidin-3-yl)methyl)-1H-pyrazol-4-yl)-5,5-difluoro-5a-methyl-1,4,4a,5,5a,6-hexahydrocyclopropa[f]indazole-3-carboxamide] | 90 |  | 
14 | C[C@@]12Cc3[nH]nc(C(=O)Nc4cnn(CC5CN(C(=O)C6CN(c7ccc(C8CCC(=O)NC8=O)cn7)C6)C5)c4)c3C[C@@H]1C2(F)F (stereo partly drawn) [Compound 23, (4aS,5aR)—N-(1-((1-(1-(5-(2,6-dioxopiperidin-3-yl)pyridin-2-yl)azetidine-3-carbonyl)azetidin-3-yl)methyl)-1H-pyrazol-4-yl)-5,5-difluoro-5a-methyl-1,4,4a,5,5a,6-hexahydrocyclopropa[f]indazole-3-carboxamide] | 85 |  | 
